Data published in PMC5853465, “Use of D-glucose–fenpiclonil conjugate as a potent and specific inhibitor of sucrose carriers” (Journal of Experimental Botany, 2017).

Target: T1, AtSUC2 (Arabidopsis thaliana, UniProt Q39231)
T1 construct: gene SUC2; full coding region in plasmid pDR-R1-R2-HIS3 (derived from pDR 192), expressed in Saccharomyces cerevisiae RS453 cells
T1 sequence (Q39231 1-512): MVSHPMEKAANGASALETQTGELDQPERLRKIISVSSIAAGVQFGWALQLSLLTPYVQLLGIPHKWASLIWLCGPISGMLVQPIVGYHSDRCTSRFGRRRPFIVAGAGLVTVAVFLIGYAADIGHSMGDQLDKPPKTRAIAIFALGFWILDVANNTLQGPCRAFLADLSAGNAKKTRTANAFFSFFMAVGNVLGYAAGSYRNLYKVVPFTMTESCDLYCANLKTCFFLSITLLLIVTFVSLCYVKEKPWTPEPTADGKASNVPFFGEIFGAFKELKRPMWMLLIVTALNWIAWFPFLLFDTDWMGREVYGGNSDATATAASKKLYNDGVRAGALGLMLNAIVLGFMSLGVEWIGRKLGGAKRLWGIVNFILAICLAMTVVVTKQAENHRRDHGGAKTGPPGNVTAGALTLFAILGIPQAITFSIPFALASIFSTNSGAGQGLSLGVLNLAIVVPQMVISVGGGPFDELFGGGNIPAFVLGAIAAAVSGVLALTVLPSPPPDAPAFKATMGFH
Assay: […]sucrose uptake into AtSUC2-transformed yeast, empty vector subtracted
Type: cell-based
Details: read-out: Inibition^b (%)

With `CC(C(=O)NCc1cn([C@@H]2O[C@H](CO)[C@@H](O)[C@H](O)[C@H]2O)nn1)n1cc(C#N)c(-c2cccc(Cl)c2Cl)c1` (stereo partly drawn) [D-GFC, D-glucose–fenpiclonil conjugate] the inhibition at 500 µM was 81.5%.
